# According to patent publication US5693812A, “Polymorphic forms of an angiotensin II antagonist” (priority 1996, dated 1997):
# Values joined by “and” are separate entries in the source; they are usually repeats but may differ in a detail not shown here. Equal values may be shown once. Where a name gives a salt, the structure may show the parent alone.
# Experiments:
# [1] = Solubility in crystallization solvent (water/methanol/isopropyl acetate); assay type: physicochemical; conditions: 1:2:2 water/methanol/isopropyl acetate
# Method: Step K: Preparation of 3-[2'-(N-Benzyl)sulfonamidobiphenyl-4-yl]methyl-5,7-dimethyl-2-ethyl-3H-imidazo[4,5-b]pyridine potassium salt--(Forms I, Id and W) [drawing 13] In a 72-L four-necked flask fitted with an overhead stirrer and a reflux condenser, 3-[2'-(N-benzyl)sulfonamidobiphenyl-4-yl]methyl-5,7-dimethyl-2-ethyl-3H-imidazo[4,5-b]pyridine 1 (5.04 kg, 9.6 mol), methanol (14.5 L) and water (2.5 L) are mixed. The slurry is warmed to 62° C. under a nitrogen atmosphere and 1.94M potassium hydroxide (4.96 L, 9.61 mol) is added to the slurry at 62° C. over 1.5 hours to provide a homogeneous solution. Isopropyl acetate (13.83 L) is then added at 65° C. and the mixture is warmed to 70° C. The homogeneous solution is filtered at 70° C. to remove any particulates that are present. The filtrate is diluted with isopropyl acetate (1.3 L), methanol (0.6 L) and water (0.1 L). […] The homogeneous mixture is cooled to 52° C. over 2 hours, whereupon potassium salt seed of form "I" (140 g) is added. This mixture becomes cloudy after 30 min. The mixture is aged for 10 hours at 52° C. The white slurry is cooled to 48° C. over 1 hour and stirred for 3 hours. […] The K-salt is considered dry when <0.05% methanol and isopropyl acetate are detected by ^1 H NMR. […] The water content can be monitored by TG analysis. […] The crystal form is monitored by X-ray analysis. […]
# AT1 receptors = conditions: background statement; cited from earlier work
# AT2 binding sites = conditions: background statement; cited from earlier work
# [2] = Equilibrium solubility in water at room temperature; assay type: physicochemical
# [3] = Thermogravimetric analysis (TGA) weight loss / water content; assay type: physicochemical; conditions: for TG of the potassium salt: dried product, Example 1 Step K
# Method: (§1) The crystal forms were characterized and evaluated by measuring the heats of solution or solution calorimetry, solubility data, x-ray powder diffraction patterns (XRPD), differential scanning calorimetry (DSC) and thermogravimetric analysis (TGA). Heats of solution at 30° C. were obtained in the Setaram C-80 calvet calorimeter with sample size of 7-13 mg dissolved into 5 ml of 88% DMSO 12% water for a final concentration of 1.4-2.6 mg/ml. XRPD patterns were recorded using an automated Siemens X-ray diffractometer with copper tube K alpha radiation. DSC and TGA were conducted using a Perkin Elmer series 7 instrument with a scan rate of 10° C./min over the temperature range of 30°-300° C. Utilizing these techniques the thermodynamic stability of the polymorphs of 3-[2'-(N-benzoyl)sulfonamidobiphenyl-4-yl]methyl-5,7-dimethyl-2-ethyl-3H-imidazo[4,5-b]pyridine potassium salt was determined.
# Step K: Preparation of 3-[2'-(N-Benzyl)sulfonamidobiphenyl-4-yl]methyl-5,7-dimethyl-2-ethyl-3H-imidazo[4,5-b]pyridine potassium salt--(Forms I, Id and W) [drawing 13] In a 72-L four-necked flask fitted with an overhead stirrer and a reflux condenser, 3-[2'-(N-benzyl)sulfonamidobiphenyl-4-yl]methyl-5,7-dimethyl-2-ethyl-3H-imidazo[4,5-b]pyridine 1 (5.04 kg, 9.6 mol), methanol (14.5 L) and water (2.5 L) are mixed. The slurry is warmed to 62° C. under a nitrogen atmosphere and 1.94M potassium hydroxide (4.96 L, 9.61 mol) is added to the slurry at 62° C. over 1.5 hours to provide a homogeneous solution. Isopropyl acetate (13.83 L) is then added at 65° C. and the mixture is warmed to 70° C. The homogeneous solution is filtered at 70° C. to remove any particulates that are present. The filtrate is diluted with isopropyl acetate (1.3 L), methanol (0.6 L) and water (0.1 L). […] The homogeneous mixture is cooled to 52° C. over 2 hours, whereupon potassium salt seed of form "I" (140 g) is added. This mixture becomes cloudy after 30 min. The mixture is aged for 10 hours at 52° C. The white slurry is cooled to 48° C. over 1 hour and stirred for 3 hours. Finally, the crystallization mixture is cooled to 0° C. at a rate of 1° C./12.5 min. and aged for 2 hours at 0° C. […] The solid is centrifuged at 0° C. and displacement-washed with a mixture of 2:2:1 cold (0° C.) isopropyl acetate/methanol/water (5.65 L) followed by isopropyl acetate (2.3 L). The solid is semi-dried to a TG of 10-15% by spin drying. The mother liquors contain 21 wt % of 3-[2'-(N-benzyl)sulfonamidobiphenyl-4-yl]methyl-5,7-dimethyl-2-ethyl-3H-imidazo[4,5-b]pyridine potassium salt. At this stage, the crystal form of the product is form "W". The product is powdered by passing through a screen (size=12). The solid is dried by passing dry nitrogen over the solid under vacuum at 22° C. for 5 hours to yield 4.55 kg of 3-[2'-(N-benzyl)sulfonamidobiphenyl-4-yl]methyl-5,7-dimethyl-2-ethyl-3H-imidazo[4,5-b]pyridine potassium salt as the form "I" with a purity of 99.7% (assay-HClO4 titration) and TG of 7-10%. Generally, the wet cake consists of residual water, methanol and isopropyl acetate. The K-salt is considered dry when <0.05% methanol and isopropyl acetate are detected by ^1 H NMR. The product is further powdered by passing the solid through a Quadro Comil (model 197s, screen size=1143 mm round impeller) to yield 4.5 kg. The product is dried to a TG of 4.6-5.5% by the passage of dry nitrogen over the solid under vacuum at 22° C. After 10 hours, 4.24 kg (78%) of the potassium salt as the form "I" is obtained with a TG of […] (99.7 wt % by titration). The water content can be monitored by TG analysis. The TG of the potassium salt of form "I" is 4.6-5.5%. The crystal form is monitored by X-ray analysis. When the potassium salt is over dried, the crystal form converts to form "Id" (TG<4.6%). […]
# [4] = Heat of solution by solution calorimetry (Setaram C-80); assay type: physicochemical
# Method: The heat of solution of different crystal forms of 3-[2'-(N-benzoyl)sulfonamidobiphenyl-4-yl]methyl-5,7-dimethyl-2-ethyl-3H-imidazo[4,5-b]pyridine potassium salt were studied at 30° C. The heat of solution is a measure of the crystal lattice energy. […] Heats of solution had to be conducted in a solvent which dissolved the samples quickly without conversion to another polymorph. This really limited solvents which could be used. Dimethylsulfoxide was chosen for this reason. The heats of solution therefore have contributions from the lattice energy of the solid as well as heat of dilution of lattice water in dimethylsulfoxide. The calorimeter therefore produces a complex signal that has an exothermic contribution from the water and an additional contribution from the energy required to dissolve the crystal. […] Additional heats of solution were determined in a mixed solvent system of 88% dimethylsulfoxide and 12% water. This system was used to minimize the contribution of moisture to the heat of solution.
# as §1, with “C.” for “C. Utilizing these techniques the thermodynamic stability of the polymorphs of 3-[2'-(N-benzoyl)sulfonamidobiphenyl-4-yl]methyl-5,7-dimethyl-2-ethyl-3H-imidazo[4,5-b]pyridine potassium salt was determined.”
# [5] = Crystal form stability in water (XRPD of remaining solid); assay type: physicochemical; conditions: room temperature, listed as I, potassium salt
# Excerpt: [13) S. R. Byre. "Solid State Chemistry of Drugs." Academic Press, New York, 1982.] […] Recrystallization of any of these lots from solvents like ethanol, methanol, isopropanol, acetone, etc. gave new crystal forms different from the original forms. […] Solubility in water at room temperature was one of these techniques. The equilibrium solubility in water, at room temperature for five polymorphs (Forms "B", "C", "D", "F", and "G") were the same (Table 1). When the remaining solids were filtered, air dried or vacuum dried overnight at room temperature the XRPD patterns had changed from the initial patterns and all were exactly the same. These experiments indicate that all of the crystal forms converted in water at room temperature to a new crystalline form designated […].
# The remaining form "I" solid after equilibrium solubility studies in water was removed by filtration and vacuum dried overnight at room temperature.
# After the discovery of form "I", form "D" could no longer be isolated in our laboratory. TGA studies indicate that form "I" of 3-[2'-(N-benzoyl)sulfonamidobiphenyl-4-yl]methyl-5,7-dimethyl-2-ethyl-3H-imidazo[4,5-b]pyridine potassium salt is a dihydrate (FIG. 4).
# [6] = Crystal form stability on heating; assay type: physicochemical; conditions: about 216° C.
# [7] = Hygroscopicity studies / exposure to humidity; assay type: physicochemical
structure (smiles),measurement,setting,value
"CCc1nc2c(C)cc(C)nc2n1Cc1ccc(-c2ccccc2S(=O)(=O)NC(=O)c2ccccc2)cc1 [3-[2'-(N-benzoyl)sulfonamidobiphenyl-4-yl]methyl-5,7-dimethyl-2-ethyl-3H-imidazo[4,5-b]pyridine potassium salt]",solubility of the potassium salt at 0° C.,[1]; 0° C.,15000 µg/mL
same,solubility of the potassium salt at 60° C.,[1]; 60° C.,174000 µg/mL
same,affinity for AT1 receptors,AT1 receptors,high affinity
same,affinity for AT2 binding sites,AT2 binding sites,low affinity
"CCc1nc2c(C)cc(C)nc2n1Cc1ccc(-c2ccccc2S(=O)(=O)NC(=O)c2ccccc2)cc1 [Form I, 3-[2'-(N-benzoyl)sulfonamidobiphenyl-4-yl]methyl-5,7-dimethyl-2-ethyl-3H-imidazo[4,5-b]pyridine potassium salt]",Solubility in water,"[2]; room temperature, Table I, potassium salt",8000 ± 400 µg/mL
same,solubility thermodynamic,"[2]; water, pH 7.8 printed for the other crystal forms",8000 µg/mL
same,% Weight Loss (Δ 30-150° C. by TGA),"[3]; 30-150° C., listed as I, potassium salt",4.1-5.9%
same,hydration state,"[3]; TGA, listed as I, potassium salt",dihydrate
same,TG of the potassium salt,[3]; listed as I,4.6-5.5% and 6.1% and 7-10%
same,ΔH solution 88% DMSO/12% H2O,"[4]; 88% DMSO/12% H2O, 30° C., listed as I, potassium salt",-25.68 ± 2.67 J/g
same,"heat of solution, ranking",[4]; 88% dimethylsulfoxide and 12% water,most endothermic
same,ΔH solution DMSO at 30° C.,"[4]; DMSO, 30° C., listed as I, potassium salt",-8.56 ± 1.64 J/g
same,"heat of solution, ranking","[4]; dimethylsulfoxide, 30° C.",most endothermic
same,thermodynamic stability,"[4]; from heats of solution and equilibrium solubility, listed as I, potassium salt",thermodynamically stable crystal form
same,crystal form after suspension in water,[5],remained unchanged
same,crystal form after heating to about 216° C.,[6],converted to form H
same,hygroscopicity,[7]; relative humidities of 47% and above,non-hygroscopic
"CCc1nc2c(C)cc(C)nc2n1Cc1ccc(-c2ccccc2S(=O)(=O)NC(=O)c2ccccc2)cc1 [Form Id, 3-[2'-(N-benzoyl)sulfonamidobiphenyl-4-yl]methyl-5,7-dimethyl-2-ethyl-3H-imidazo[4,5-b]pyridine potassium salt]",TG of the potassium salt,[3]; listed as Id,< 4.6%
same,reconversion upon exposure to ambient humidity,[7]; ambient humidity,"reconverted to form ""I"""
